tested on: HT-29; test: fluorometric resazurin-based anti-proliferative assay, HT-29; settings: Homo sapiens, HT-29 cancer cell line
Description: Determination of the IC-50 Concentration Against Various Cancer Cell Lines
The anti-proliferative activity of some representative example compounds of the present invention was determined in-vitro using a fluorometric resazurin-based assay. Cancer cell proliferation and viability was quantified upon reduction of non-fluorescent resazurin into the fluorescent dye resorufin by metabolically active cells as described in Strotmann, U. J., et al., The dehydrogenase assay with resazurin: Practical performance as a monitoring system and pH-dependent toxicity of phenolic compounds. Ecotox. Environ. Safety 25, 79-89, (1993).

**Q.** `CCCO[C@H](C[C@H](C(C)C)N(CCC)C(=O)C(NC(=O)C1CCCCN1C)[C@@H](C)CC)c1nc(C(=O)N[C@@H](Cc2ccc(O)cc2)C(=O)O)cs1` (stereo partly drawn) was tested. Which IC50 did it give?
**A.** 3.1 ± 0.6 nM

**Q.** How did the IC50 turn out when `CCCN(C(=O)C(NC(=O)C1CCCCN1C)[C@@H](C)CC)[C@H](C[C@@H](OCOC)c1nc(C(=O)N[C@@H](Cc2ccccc2)C(=O)O)cs1)C(C)C` (stereo partly drawn) was run?
**A.** 51.1 ± 2.6 nM

**Q.** For `CCCN(C(=O)C(NC(=O)C1CCCCN1C)[C@@H](C)CC)[C@H](C[C@@H](OC(C)=O)c1nc(C(=O)N[C@@H](Cc2ccccc2)C(=O)NCCO)cs1)C(C)C` (stereo partly drawn), which IC50 is on record?
**A.** 3.9 ± 0.7 nM

**Q.** Which IC50 does the source give for `CCCN(C(=O)C(NC(=O)C1CCCCN1C)[C@@H](C)CC)[C@H](C[C@@H](OC(C)=O)c1nc(C(=O)N[C@@H](Cc2ccc(F)cc2)C(=O)O)cs1)C(C)C` (stereo partly drawn) here?
**A.** 1 ± 0.2 nM

**Q.** For `CCCN(C(=O)C(NC(=O)C1CCCCN1C)[C@@H](C)CC)[C@H](C[C@@H](OC(C)=O)c1nc(C(=O)N[C@@H](Cc2ccccc2)C(=O)O)cs1)C(C)C` (stereo partly drawn), which IC50 is on record?
**A.** 4.5 ± 0.5 nM

**Q.** With `CC[C@H](C)C(NC(=O)C1CCCCN1C)C(=O)N(C)[C@H](C[C@@H](OC(C)=O)c1nc(C(=O)N[C@@H](Cc2ccccc2)C(=O)O)cs1)C(C)C` (stereo partly drawn) as the molecule, how does the IC50 read?
**A.** 3.2 ± 0.4 nM
